Data from ChEMBL document CHEMBL2385026, “Identification of C-2 hydroxyethyl imidazopyrrolopyridines as potent JAK1 inhibitors with favorable physicochemical properties and high selectivity over JAK2” (J Med Chem, 2013).
≈ marks a conversion by molar mass, not a printed value. Calls of active or inactive are those of the source. No cut-off for these calls is given here.

Key:
[1] = AUC in Lewis rat collagen-induced arthritis model at 100 mg/kg, po administered on day 20; format: ADME, organism-based; set-up: dose 100 mg/kg, route oral; conditions: in vivo
[2] = AUC in cynomolgus monkey at 2 mg/kg, po by LC/MS/MS analysis; format: ADME, organism-based, Macaca fascicularis; set-up: dose 2 mg/kg, route oral; conditions: plasma
Rattus norvegicus [3] = assay: Antiarthritic activity in Lewis rat collagen-induced arthritis model assessed as decrease in mean ankle thicknesses at 500 mg/kg, po qd administered for 11 days; format: functional, organism-based; set-up: dose 500 mg/kg
[4] = Oral bioavailability in Beagle dog at 2 mg/kg by LC/MS/MS analysis; format: ADME, organism-based, Canis lupus familiaris; conditions: Beagle, in vivo
[5] = target: T1, Non-receptor tyrosine-protein kinase TYK2 (Homo sapiens, UniProt P29597)
Cytochrome P450 3A4 [6] = target: T2, Cytochrome P450 3A4 (Homo sapiens, UniProt P08684); assay: Reversible inhibition of CYP3A4 in human liver microsomes using testosterone as substrate by LC/MS/MS analysis; format: ADME, Microsome
[7] = Plasma protein binding in cynomolgus monkey; format: ADME, cell-free, Macaca fascicularis; conditions: read-out: PPB (converted)
[8] = Clearance in cynomolgus monkey at 0.4 mg/kg, iv by LC/MS/MS analysis; format: ADME, organism-based, Macaca fascicularis; set-up: dose 0.4 mg/kg, route intravenous; conditions: in vivo
[9] = target: Tyrosine-protein kinase JAK3 (Homo sapiens, UniProt P52333)
[10] = Oral bioavailability in Sprague-Dawley rat at 2 mg/kg by LC/MS/MS analysis; format: ADME, organism-based; conditions: Sprague-Dawley, in vivo
[11] = Clearance in Sprague-Dawley rat at 0.4 mg/kg, iv by LC/MS/MS analysis; format: ADME, organism-based; set-up: dose 0.4 mg/kg, route intravenous; conditions: in vivo
[12] = Metabolic stability in rat hepatocytes assessed as hepatic clearance; format: ADME, cell-based, Liver, Hepatocyte
[13] = AUC in Lewis rat collagen-induced arthritis model at 20 mg/kg, po administered on day 10; format: ADME, organism-based; set-up: dose 20 mg/kg, route oral; conditions: in vivo
[14] = target: T3, Tyrosine-protein kinase JAK1 (Homo sapiens, UniProt P23458)
[15] = Metabolic stability in dog hepatocytes assessed as hepatic clearance; format: ADME, cell-based, Canis lupus familiaris, Liver, Hepatocyte
[16] = AUC in Beagle dog at 2 mg/kg, po by LC/MS/MS analysis; format: ADME, organism-based, Canis lupus familiaris; set-up: dose 2 mg/kg, route oral; conditions: plasma
[17] = Half life in cynomolgus monkey at 0.4 mg/kg, iv by LC/MS/MS analysis; format: ADME, organism-based, Macaca fascicularis; set-up: dose 0.4 mg/kg, route intravenous; conditions: in vivo
[18] = target: T1, Non-receptor tyrosine-protein kinase TYK2; remark: listed apart in the source
Rattus norvegicus [19] = assay: Antiarthritic activity in Lewis rat collagen-induced arthritis model assessed as decrease in mean ankle thicknesses at 20 mg/kg, po qd administered for 11 days; format: functional, organism-based; set-up: dose 20 mg/kg
[20] = Thermodynamic solubility in aqueous buffer at pH 2; format: physicochemical; conditions: read-out: Therm_solubility
[21] = AUC in Lewis rat collagen-induced arthritis model at 100 mg/kg, po administered on day 10; format: ADME, organism-based; set-up: dose 100 mg/kg, route oral; conditions: in vivo
Cytochrome P450 3A4 [22] = target: T2, Cytochrome P450 3A4; assay: Reversible inhibition of CYP3A4 in human liver microsomes using midazolam as substrate by LC/MS/MS analysis; format: ADME, Microsome
Cytochrome P450 2C9 = Cytochrome P450 2C9 (Homo sapiens, UniProt P11712)
[23] = Plasma protein binding in dog; format: ADME, cell-free, Canis lupus familiaris; conditions: read-out: PPB (converted)
[24] = Half life in Beagle dog at 0.4 mg/kg, iv by LC/MS/MS analysis; format: ADME, organism-based, Canis lupus familiaris; set-up: dose 0.4 mg/kg, route intravenous; conditions: in vivo
[25] = AUC in Sprague-Dawley rat at 2 mg/kg, po by LC/MS/MS analysis; format: ADME, organism-based; set-up: dose 2 mg/kg, route oral; conditions: plasma
[26] = Apparent permeability across basolateral to apical side in dog MDCK cells; format: ADME, cell-based, Canis lupus familiaris
[27] = Thermodynamic solubility in aqueous buffer at pH 7.4; format: physicochemical; conditions: read-out: Therm_solubility
[28] = Cmax in Beagle dog at 2 mg/kg, po by LC/MS/MS analysis; format: ADME, organism-based, Canis lupus familiaris; set-up: dose 2 mg/kg, route oral; conditions: in vivo
[29] = AUC in Lewis rat collagen-induced arthritis model at 500 mg/kg, po administered on day 10; format: ADME, organism-based; set-up: dose 500 mg/kg, route oral; conditions: in vivo
[30] = Hepatic clearance in human liver microsomes by LC/MS/MS analysis; format: ADME, Microsome
[31] = target: T3, Tyrosine-protein kinase JAK1; remark: listed apart in the source
[32] = Cmax in Sprague-Dawley rat at 2 mg/kg, po by LC/MS/MS analysis; format: ADME, organism-based; set-up: dose 2 mg/kg, route oral; conditions: in vivo
[33] = Metabolic stability in monkey hepatocytes assessed as hepatic clearance; format: ADME, cell-based, Macaca mulatta, Liver, Hepatocyte; conditions: rhesus monkey
[34] = Cmax in cynomolgus monkey at 2 mg/kg, po by LC/MS/MS analysis; format: ADME, organism-based, Macaca fascicularis; set-up: dose 2 mg/kg, route oral; conditions: in vivo
[35] = Oral bioavailability in cynomolgus monkey at 2 mg/kg by LC/MS/MS analysis; format: ADME, organism-based, Macaca fascicularis; conditions: in vivo
[36] = system: Platelet-derived growth factor receptor alpha (Homo sapiens), P16234 [V561D]; assay: Inhibition of PDGFRalpha V561D mutant (unknown origin) at 1 uM
[37] = AUC in Lewis rat collagen-induced arthritis model at 500 mg/kg, po administered on day 20; format: ADME, organism-based; set-up: dose 500 mg/kg, route oral; conditions: in vivo
[38] = Hepatic clearance in human hepatocytes after 1 to 4 hrs by LC/MS/MS analysis; format: ADME, cell-based, Liver, Hepatocyte
[39] = Half life in Sprague-Dawley rat at 0.4 mg/kg, iv by LC/MS/MS analysis; format: ADME, organism-based; set-up: dose 0.4 mg/kg, route intravenous; conditions: in vivo
Rattus norvegicus [40] = assay: Antiarthritic activity in Lewis rat collagen-induced arthritis model assessed as decrease in mean ankle thicknesses at 100 mg/kg, po qd administered for 11 days; format: functional, organism-based; set-up: dose 100 mg/kg
[41] = Plasma protein binding in rat; format: ADME, cell-free; conditions: read-out: PPB (converted)
[42] = target: T3, Tyrosine-protein kinase JAK1; remark: listed apart in the source
[43] = target: Voltage-gated inwardly rectifying potassium channel KCNH2 (Homo sapiens, UniProt Q12809)
Cytochrome P450 2D6 = Cytochrome P450 2D6 (Homo sapiens, UniProt P10635)
Cytochrome P450 1A2 = target: T4, Cytochrome P450 1A2 (Homo sapiens, UniProt P05177); assay: Reversible inhibition of CYP1A2 in human liver microsomes using phenacetin as substrate by LC/MS/MS analysis; format: ADME, Microsome
T4 sequence (P05177 whole entry): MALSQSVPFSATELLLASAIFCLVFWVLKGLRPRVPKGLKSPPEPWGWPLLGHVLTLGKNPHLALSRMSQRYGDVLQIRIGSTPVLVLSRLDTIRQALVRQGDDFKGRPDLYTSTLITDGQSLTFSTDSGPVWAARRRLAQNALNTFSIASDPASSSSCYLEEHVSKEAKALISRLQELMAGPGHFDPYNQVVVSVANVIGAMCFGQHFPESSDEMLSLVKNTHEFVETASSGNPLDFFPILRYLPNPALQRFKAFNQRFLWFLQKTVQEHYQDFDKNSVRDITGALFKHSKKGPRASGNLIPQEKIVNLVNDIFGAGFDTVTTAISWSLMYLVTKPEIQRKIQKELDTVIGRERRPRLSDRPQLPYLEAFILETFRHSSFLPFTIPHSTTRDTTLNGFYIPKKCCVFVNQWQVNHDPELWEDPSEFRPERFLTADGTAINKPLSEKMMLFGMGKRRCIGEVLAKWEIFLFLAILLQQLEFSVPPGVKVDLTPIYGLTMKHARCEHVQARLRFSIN

[44] = Clearance in Beagle dog at 0.4 mg/kg, iv by LC/MS/MS analysis; format: ADME, organism-based, Canis lupus familiaris; set-up: dose 0.4 mg/kg, route intravenous; conditions: in vivo
Cytochrome P450 2C19 = Cytochrome P450 2C19 (Homo sapiens, UniProt P33261)
[45] = Apparent permeability across apical to basolateral side in dog MDCK cells; format: ADME, cell-based, Canis lupus familiaris
[46] = AUC in Lewis rat collagen-induced arthritis model at 20 mg/kg, po administered on day 20; format: ADME, organism-based; set-up: dose 20 mg/kg, route oral; conditions: in vivo

T3 sequence (P23458 whole entry): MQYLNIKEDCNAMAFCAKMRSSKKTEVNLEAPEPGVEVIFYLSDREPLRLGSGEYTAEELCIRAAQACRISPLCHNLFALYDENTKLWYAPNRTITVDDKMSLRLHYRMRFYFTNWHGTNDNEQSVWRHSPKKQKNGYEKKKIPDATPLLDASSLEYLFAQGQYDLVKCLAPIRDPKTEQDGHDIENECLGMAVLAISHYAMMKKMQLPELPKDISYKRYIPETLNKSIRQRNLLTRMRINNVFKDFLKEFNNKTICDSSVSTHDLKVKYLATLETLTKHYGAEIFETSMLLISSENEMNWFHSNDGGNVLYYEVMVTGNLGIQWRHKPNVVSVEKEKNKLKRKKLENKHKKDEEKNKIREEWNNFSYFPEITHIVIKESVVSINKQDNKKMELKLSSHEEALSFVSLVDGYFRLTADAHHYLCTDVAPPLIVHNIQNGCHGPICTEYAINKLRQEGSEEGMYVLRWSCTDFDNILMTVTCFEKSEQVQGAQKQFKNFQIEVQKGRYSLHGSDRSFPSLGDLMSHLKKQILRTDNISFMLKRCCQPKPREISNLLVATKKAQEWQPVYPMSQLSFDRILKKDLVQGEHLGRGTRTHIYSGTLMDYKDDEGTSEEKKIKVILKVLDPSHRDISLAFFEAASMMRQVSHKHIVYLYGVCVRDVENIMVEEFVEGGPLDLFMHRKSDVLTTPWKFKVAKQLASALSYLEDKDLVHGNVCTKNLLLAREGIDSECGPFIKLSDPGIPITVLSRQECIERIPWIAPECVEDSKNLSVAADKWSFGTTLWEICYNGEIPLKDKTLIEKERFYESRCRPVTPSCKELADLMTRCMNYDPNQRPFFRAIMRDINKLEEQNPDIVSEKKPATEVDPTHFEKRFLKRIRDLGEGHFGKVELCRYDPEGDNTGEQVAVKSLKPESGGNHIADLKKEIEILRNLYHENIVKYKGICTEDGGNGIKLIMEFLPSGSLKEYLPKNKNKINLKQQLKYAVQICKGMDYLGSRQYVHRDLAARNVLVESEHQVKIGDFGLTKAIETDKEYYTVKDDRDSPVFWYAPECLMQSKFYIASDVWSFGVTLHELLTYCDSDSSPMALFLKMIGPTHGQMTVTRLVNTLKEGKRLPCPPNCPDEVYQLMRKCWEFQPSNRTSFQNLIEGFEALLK
T1 sequence (P29597 whole entry): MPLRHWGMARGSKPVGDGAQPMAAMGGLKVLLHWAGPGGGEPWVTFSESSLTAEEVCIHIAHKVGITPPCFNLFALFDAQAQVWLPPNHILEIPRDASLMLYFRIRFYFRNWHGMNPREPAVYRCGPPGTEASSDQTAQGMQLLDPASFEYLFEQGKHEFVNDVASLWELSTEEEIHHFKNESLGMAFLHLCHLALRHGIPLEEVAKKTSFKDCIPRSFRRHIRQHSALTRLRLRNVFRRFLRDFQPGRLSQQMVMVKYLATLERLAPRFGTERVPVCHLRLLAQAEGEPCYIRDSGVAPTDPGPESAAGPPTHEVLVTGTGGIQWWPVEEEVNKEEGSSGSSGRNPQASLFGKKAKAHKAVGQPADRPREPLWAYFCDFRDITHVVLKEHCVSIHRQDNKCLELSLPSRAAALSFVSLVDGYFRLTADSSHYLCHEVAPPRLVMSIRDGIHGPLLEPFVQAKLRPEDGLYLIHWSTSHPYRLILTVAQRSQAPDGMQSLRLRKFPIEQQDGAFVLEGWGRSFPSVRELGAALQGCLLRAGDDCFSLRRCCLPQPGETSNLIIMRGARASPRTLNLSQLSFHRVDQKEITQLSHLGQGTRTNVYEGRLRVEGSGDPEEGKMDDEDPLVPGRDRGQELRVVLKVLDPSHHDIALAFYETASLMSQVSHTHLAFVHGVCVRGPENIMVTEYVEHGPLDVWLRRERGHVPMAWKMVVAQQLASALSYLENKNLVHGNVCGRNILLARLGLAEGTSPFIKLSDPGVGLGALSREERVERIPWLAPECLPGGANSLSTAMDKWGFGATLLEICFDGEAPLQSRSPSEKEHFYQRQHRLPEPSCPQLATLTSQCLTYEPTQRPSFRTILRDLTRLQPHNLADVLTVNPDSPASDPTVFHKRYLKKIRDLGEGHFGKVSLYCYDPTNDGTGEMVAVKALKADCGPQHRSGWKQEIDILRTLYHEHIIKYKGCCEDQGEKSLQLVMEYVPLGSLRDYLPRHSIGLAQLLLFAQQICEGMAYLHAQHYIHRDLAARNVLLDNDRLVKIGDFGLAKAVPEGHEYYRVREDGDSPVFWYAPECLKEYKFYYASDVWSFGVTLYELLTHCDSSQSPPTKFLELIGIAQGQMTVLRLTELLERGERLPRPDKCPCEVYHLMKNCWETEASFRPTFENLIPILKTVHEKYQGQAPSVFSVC
T2 sequence (P08684 whole entry): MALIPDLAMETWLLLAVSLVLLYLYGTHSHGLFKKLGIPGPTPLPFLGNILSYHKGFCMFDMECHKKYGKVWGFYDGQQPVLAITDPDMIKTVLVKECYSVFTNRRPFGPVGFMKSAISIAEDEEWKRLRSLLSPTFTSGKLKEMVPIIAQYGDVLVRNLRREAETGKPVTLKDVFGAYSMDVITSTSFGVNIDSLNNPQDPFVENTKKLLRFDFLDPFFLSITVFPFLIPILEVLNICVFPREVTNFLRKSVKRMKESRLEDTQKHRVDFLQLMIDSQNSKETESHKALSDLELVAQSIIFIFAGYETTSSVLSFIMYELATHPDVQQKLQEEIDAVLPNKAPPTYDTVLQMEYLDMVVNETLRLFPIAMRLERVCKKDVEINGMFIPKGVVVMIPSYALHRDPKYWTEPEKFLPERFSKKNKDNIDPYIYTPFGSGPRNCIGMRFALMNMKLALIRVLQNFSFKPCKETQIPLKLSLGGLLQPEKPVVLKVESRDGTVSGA
Chain of Cytochrome P450 2C19 (P33261 whole entry): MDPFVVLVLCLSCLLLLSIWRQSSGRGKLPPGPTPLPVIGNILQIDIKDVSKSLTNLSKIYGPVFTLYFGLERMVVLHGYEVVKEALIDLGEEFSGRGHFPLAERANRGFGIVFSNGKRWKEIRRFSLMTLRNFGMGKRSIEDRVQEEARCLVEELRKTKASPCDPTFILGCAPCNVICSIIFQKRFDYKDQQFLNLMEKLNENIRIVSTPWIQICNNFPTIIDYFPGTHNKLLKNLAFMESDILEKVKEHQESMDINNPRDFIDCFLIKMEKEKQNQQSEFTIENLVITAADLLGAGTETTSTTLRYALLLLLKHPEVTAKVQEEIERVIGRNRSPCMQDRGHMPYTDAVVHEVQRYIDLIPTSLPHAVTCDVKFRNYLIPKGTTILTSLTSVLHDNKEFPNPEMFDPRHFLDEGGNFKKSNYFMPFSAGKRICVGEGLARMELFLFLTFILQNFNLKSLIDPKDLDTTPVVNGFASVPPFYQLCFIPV
Chain of Platelet-derived growth factor receptor alpha (Homo sapiens), P16234 [V561D] (P16234 whole entry V561D): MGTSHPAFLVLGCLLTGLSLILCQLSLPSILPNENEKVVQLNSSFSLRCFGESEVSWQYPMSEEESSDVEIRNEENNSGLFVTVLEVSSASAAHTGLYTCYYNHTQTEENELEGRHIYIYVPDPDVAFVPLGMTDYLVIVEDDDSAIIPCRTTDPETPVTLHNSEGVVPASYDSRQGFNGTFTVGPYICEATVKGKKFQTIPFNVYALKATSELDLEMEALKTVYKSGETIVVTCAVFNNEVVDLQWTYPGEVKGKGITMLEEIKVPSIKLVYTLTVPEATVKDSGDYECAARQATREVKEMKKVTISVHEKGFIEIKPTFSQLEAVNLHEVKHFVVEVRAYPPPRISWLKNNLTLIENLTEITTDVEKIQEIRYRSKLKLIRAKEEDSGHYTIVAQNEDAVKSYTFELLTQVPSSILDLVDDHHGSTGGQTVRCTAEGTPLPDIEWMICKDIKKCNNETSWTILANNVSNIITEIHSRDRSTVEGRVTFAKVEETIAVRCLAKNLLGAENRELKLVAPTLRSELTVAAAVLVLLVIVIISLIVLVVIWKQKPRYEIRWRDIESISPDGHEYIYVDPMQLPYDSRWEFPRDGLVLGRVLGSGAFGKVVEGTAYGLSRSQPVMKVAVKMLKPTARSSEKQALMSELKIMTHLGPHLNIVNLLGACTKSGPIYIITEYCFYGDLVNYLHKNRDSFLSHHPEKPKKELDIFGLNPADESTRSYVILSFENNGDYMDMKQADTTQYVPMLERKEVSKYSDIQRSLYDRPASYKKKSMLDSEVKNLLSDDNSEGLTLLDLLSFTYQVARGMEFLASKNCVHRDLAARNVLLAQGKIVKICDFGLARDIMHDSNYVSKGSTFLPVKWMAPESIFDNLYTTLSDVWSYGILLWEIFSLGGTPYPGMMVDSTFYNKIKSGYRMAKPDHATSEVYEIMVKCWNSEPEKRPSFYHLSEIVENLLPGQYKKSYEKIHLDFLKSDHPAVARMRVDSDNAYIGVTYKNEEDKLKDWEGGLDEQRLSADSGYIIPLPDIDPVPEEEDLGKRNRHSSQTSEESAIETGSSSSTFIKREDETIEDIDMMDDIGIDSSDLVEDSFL
Chain of Cytochrome P450 2D6 (P10635 whole entry): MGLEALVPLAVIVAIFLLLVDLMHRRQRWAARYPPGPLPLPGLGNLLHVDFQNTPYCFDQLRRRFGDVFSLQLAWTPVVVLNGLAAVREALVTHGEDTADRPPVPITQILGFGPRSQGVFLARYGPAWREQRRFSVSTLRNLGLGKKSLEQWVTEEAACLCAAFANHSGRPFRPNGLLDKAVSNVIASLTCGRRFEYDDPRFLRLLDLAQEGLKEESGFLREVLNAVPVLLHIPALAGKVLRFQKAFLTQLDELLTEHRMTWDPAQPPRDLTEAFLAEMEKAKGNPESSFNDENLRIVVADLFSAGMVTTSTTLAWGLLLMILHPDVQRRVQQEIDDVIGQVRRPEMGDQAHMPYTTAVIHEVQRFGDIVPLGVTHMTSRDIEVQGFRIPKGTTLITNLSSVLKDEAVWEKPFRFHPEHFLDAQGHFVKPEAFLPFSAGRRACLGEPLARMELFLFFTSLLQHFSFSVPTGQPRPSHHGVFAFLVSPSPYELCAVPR

SMILES: C[C@@H](O)c1nc2cnc3[nH]ccc3c2n1[C@H]1CC[C@H](C#N)CC1
- AUC [1]: 50.1 µM·h
- AUC [2]: 3.9 µM·h
- Activity (Rattus norvegicus [3]): Active
- bioavailability [4]: 119%
- EC50 [5]: 5.6 µM
- IC50 (Cytochrome P450 3A4 [6]): > 10 µM
- fraction unbound [7]: 0.4
- clearance [8]: 1.08 L/h/kg
- Ki [9]: 0.28 µM
- bioavailability [10]: 52%
- clearance [11]: 3.6 L/h/kg
- CLhep predicted [12]: 0.222 L/h/kg
- AUC [13]: 15 µM·h
- EC50 [14]: 0.12 µM
- CLhep predicted [15]: 0.18 L/h/kg
- AUC [16]: 8.3 µM·h
- half-life [17]: 1.7 h
- Ki [18]: 0.012 µM
- Activity (Rattus norvegicus [19]): Active
- solubility thermodynamic [20]: > 4000 µM
- AUC [21]: 59.6 µM·h
- IC50 (Cytochrome P450 3A4 [22]): 7.9 µM
- IC50 (Cytochrome P450 2C9): > 10 µM
- fraction unbound [23]: 0.53
- half-life [24]: 2.2 h
- AUC [25]: 0.94 µM·h
- Papp B→A [26]: 47 nm/s
- solubility thermodynamic [27]: 1900 µM (≈ 588 µg/mL)
- Cmax [28]: 2.1 µM
- AUC [29]: 467 µM·h
- CLhep predicted [30]: 0.198 L/h/kg
- Ki [31]: 0.0019 µM
- Cmax [32]: 0.42 µM
- CLhep predicted [33]: 0.144 L/h/kg
- Cmax [34]: 0.63 µM
- bioavailability [35]: 65%
- inhibition [36]: 55%
- AUC [37]: 269 µM·h
- CLhep predicted [38]: 0.102 L/h/kg
- half-life [39]: 0.5 h
- Activity (Rattus norvegicus [40]): Active
- fraction unbound [41]: 0.62
- EC50 [42]: 0.13 µM
- IC50 [43]: > 100 µM
- IC50 (Cytochrome P450 2D6): > 10 µM
- IC50 (Cytochrome P450 1A2): > 10 µM
- clearance [44]: 0.96 L/h/kg
- IC50 (Cytochrome P450 2C19): > 10 µM
- Papp A→B [45]: 27 nm/s
- AUC [46]: 10.6 µM·h
